Here are results for three compounds from article PMC6366423 (Journal of Enzyme Inhibition and Medicinal Chemistry, 2019).

For experiment [1] the following is noted: ORAC-FL, positive reference molecules; cited from earlier work.
A short description of experiment [2]: Oxygen radical absorbance capacity assay (ORAC-FL). The following applies: Trolox equivalents (TE), mean (n = 3) ± SD.
Experiment [3] concerns the target T1, hMAOA (Homo sapiens, UniProt P21397).
T1 sequence (P21397 1-527): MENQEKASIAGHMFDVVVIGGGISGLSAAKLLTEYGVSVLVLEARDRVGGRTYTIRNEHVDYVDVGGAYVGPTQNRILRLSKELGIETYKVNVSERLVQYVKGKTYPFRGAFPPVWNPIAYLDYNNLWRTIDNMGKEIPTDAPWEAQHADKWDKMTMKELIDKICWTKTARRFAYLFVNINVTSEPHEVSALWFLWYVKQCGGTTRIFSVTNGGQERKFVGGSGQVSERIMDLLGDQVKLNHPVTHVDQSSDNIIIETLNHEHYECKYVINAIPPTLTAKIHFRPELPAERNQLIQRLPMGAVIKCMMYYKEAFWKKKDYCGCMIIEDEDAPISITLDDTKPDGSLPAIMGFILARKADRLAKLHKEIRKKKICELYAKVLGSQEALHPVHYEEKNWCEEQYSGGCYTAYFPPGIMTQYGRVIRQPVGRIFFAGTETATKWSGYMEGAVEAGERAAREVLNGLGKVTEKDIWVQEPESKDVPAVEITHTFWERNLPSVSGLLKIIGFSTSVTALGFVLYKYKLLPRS
As to the kind of experiment: MAO activity assay (kynuramine, HPLC-MS). Format: biochemical. The following applies: at 10 μM; read-out: hMAOA enzymatic inhibition (%).

The target of experiment [4] is T2, hMAOB (Homo sapiens, UniProt P27338).
T2 sequence (P27338 1-520): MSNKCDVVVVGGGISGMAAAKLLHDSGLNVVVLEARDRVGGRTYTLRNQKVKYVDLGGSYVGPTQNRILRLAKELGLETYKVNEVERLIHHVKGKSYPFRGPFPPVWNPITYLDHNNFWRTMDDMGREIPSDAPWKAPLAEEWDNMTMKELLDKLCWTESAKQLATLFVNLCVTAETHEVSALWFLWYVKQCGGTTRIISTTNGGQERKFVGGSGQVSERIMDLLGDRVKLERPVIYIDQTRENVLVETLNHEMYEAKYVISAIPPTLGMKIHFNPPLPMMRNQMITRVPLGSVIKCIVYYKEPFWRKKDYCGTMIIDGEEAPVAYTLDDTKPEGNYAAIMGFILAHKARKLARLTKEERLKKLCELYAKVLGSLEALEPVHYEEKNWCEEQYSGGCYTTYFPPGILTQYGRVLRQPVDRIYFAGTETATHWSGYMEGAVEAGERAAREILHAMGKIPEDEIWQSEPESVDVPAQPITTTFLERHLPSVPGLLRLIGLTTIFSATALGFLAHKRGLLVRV
Kind of experiment: MAO activity assay (kynuramine, HPLC-MS). Format: biochemical. Particulars: at 10 μM; read-out: hMAOB enzymatic inhibition (%).

In experiment [5] the target is T3, EeAChE (Electrophorus electricus, UniProt O42275).
T3 construct: EeAChE (type VI-S, purified from Electrophorus electricus); tissue type VI-S
T3 sequence (O42275 24-633): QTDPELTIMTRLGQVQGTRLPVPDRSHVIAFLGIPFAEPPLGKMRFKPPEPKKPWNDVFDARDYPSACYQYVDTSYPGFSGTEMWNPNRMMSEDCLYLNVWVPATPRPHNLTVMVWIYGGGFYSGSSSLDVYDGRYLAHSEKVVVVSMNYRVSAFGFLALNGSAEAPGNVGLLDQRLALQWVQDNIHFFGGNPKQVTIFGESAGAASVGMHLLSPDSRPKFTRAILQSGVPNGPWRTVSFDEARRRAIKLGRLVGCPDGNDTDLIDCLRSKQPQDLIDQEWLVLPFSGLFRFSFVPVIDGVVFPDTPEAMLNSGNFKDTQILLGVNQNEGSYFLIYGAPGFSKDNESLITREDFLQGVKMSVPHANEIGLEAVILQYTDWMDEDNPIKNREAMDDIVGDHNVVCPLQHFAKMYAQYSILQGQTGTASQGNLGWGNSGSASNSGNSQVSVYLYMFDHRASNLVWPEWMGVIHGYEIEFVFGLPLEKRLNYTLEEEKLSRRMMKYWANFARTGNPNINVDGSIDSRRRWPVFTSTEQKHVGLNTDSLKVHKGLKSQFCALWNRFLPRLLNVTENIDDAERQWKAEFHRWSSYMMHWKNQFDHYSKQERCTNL
Kind of experiment: biochemical. Particulars: mean ± SEM. The protocol:
(§1) Inhibition of EeAChE and eqBuChE of hybrids 14a–p was carried out with EeAChE (type VI-S, purified from Electrophorus electricus) and eqBuChE (purified from equine serum) using Ellman’s protocol. Briefly, the reaction was performed in a final volume of 3 ml of a phosphate-buffered solution (0.1 M) at pH = 8.0 containing 5,5’-dithiobis-2-nitrobenzoic acid (DTNB) (2.625 μL, 0.35 mM), EeAChE (29 μl, 0.035 U/mL) or eqBuChE (60 μl, 0.05 U/mL), Bovine Albumin Serum phosphate-buffered solution (40 μL 1% w/v), and tested compound (3 µL). After 10 min of incubation, the substrate, AcTCh) iodide or butyrylthiocholine (BuTCh) iodide, was added, and the reaction was incubated for an additional 15 min.

Experiment [6] concerns the target T4, eqBuChE (Equus caballus, UniProt P81908).
T4 construct: eqBuChE (purified from equine serum); from tissue; host or cells: equine serum
As to the kind of experiment: biochemical. Format: biochemical, equine. The following applies: for IC50: mean ± SEM. The protocol:
as §1

The target of experiment [7] is T5, hAChE (Homo sapiens, UniProt P22303).
T5 construct: purchased Sigma Aldrich; host or cells: HEK 293
T5 sequence (P22303 32-614): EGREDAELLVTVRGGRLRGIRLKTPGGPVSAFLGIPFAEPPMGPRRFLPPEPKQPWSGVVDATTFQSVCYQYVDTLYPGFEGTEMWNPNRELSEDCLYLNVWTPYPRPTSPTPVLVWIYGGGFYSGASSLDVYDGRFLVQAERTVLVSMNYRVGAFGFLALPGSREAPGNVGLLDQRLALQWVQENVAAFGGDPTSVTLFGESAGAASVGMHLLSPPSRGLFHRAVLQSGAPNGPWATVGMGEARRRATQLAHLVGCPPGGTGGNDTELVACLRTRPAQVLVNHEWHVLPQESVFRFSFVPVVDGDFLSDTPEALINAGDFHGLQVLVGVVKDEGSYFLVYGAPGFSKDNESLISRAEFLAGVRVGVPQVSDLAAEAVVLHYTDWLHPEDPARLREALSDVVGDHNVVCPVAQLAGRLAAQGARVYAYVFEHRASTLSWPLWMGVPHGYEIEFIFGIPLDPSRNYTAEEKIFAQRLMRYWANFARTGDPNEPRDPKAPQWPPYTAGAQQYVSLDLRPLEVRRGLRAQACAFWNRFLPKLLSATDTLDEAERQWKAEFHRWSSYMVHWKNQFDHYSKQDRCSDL
Kind of experiment: biochemical. The format is biochemical.

Experiment [8] has as its target T6, hBuChE (Homo sapiens, UniProt P06276).
T6 construct: hBuChE from human serum (Sigma Aldrich, Madrid, Spain); purchased Sigma Aldrich; host or cells: human serum
As to the kind of experiment: biochemical. Format: biochemical.

Several values for one entry are separate records, joined by “and”; a condition that tells them apart may be missing. Identical values can stand only once. Like-named read-outs stand apart in the source and are kept apart here.

The inhibition is how much of the control response was suppressed. Broadly, the IC50 is the concentration at which inhibition is half-maximal. A higher IC50 goes with a need for much substance.

T4 sequence (P81908 whole entry): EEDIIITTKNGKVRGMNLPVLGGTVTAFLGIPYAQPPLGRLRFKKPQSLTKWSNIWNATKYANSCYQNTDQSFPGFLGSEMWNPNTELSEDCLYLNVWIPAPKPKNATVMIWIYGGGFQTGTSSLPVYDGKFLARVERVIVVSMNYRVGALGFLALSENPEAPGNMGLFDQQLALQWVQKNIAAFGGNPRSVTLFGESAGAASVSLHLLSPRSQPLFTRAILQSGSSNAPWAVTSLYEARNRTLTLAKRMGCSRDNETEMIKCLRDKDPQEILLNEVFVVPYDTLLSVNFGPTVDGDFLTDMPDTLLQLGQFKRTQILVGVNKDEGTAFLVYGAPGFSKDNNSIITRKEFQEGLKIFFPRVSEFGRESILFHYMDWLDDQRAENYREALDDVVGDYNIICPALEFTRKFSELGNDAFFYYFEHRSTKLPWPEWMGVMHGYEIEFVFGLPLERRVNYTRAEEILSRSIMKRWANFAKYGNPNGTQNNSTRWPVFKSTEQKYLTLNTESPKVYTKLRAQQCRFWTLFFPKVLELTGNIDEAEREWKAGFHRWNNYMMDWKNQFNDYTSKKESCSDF
T6 sequence (P06276 29-602): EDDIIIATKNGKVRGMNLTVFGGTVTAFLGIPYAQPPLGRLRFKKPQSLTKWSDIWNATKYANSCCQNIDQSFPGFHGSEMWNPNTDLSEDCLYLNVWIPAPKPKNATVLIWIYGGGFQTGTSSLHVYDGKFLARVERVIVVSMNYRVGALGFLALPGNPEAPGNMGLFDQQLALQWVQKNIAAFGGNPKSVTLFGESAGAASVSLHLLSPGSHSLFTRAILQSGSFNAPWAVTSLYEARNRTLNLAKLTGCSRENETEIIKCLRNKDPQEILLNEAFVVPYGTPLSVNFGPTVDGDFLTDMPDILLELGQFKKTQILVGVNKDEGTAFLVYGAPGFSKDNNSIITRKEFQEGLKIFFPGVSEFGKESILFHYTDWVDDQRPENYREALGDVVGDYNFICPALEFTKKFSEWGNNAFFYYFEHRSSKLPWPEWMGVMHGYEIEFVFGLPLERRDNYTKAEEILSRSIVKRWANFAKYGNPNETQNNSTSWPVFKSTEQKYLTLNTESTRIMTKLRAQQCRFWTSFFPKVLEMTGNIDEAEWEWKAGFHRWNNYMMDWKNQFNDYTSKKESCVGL

Take `COc1cc(/C=C/C(=O)O)ccc1O` [Ferulic acid]: the “ORAC (Eq Trolox)” value in experiment [1] is 3.74 Eq Trolox and 3.74 ± 0.22 Eq Trolox.

`CC(C)Oc1ccc2[nH]cc(CCNC(=O)CN(CCC3CCN(Cc4ccccc4)CC3)C(=O)c3cc(=O)c4ccccc4o3)c2c1` [14g]: the “ORAC (Eq Trolox)” value in experiment [2] worked out at 5.05 ± 0.15 Eq Trolox. In addition, the inhibition at 10 µM in experiment [3] and in experiment [4] was under 40% each time. The IC50 was 1050 ± 60 nM in experiment [5], 6.29 ± 0.73 nM in experiment [6], 2000 ± 70 nM in experiment [7] (mean ± SEM) and 25 ± 0.2 nM in experiment [8] (mean ± SEM). Moreover, the “eqBuChE potency, fold more potent than Donepezil” value in experiment [6] is listed as 133 fold.

For the compound `O=C(CN(CCCC1CCN(Cc2ccccc2)CC1)C(=O)c1cc(=O)c2ccccc2o1)NCCc1c[nH]c2ccccc12` [14i], the “ORAC (Eq Trolox)” value in experiment [2] amounted to 6.92 Eq Trolox; in experiment [2] (listed as [14]i), 6.92 ± 0.32 Eq Trolox. Further, the inhibition at 10 µM was under 40% in experiment [3]; under 40% in experiment [4]; under 50% in experiment [7] (at 10 μM, read-out: hAChE enzymatic inhibition (%)); under 50% in experiment [8] (at 10 μM, read-out: hBuChE enzymatic inhibition (%)). Also, the 50% inhibitory concentration (IC50) turned out to be 260 ± 10 nM in experiment [5] and 50.1 ± 5.19 nM in experiment [6].
